Data on 27 compounds can be found in patent publication US20130158112A1, “COMPOSITIONS AND METHODS FOR INHIBITING BETA AMYLOID SECRETION” (priority 2011, published 2013).

Molecules are shown by their SMILES. Read-outs that look alike come from different tables or passages of the source.

In one data set the test system is Aβ secretion. Nature of the data set: Secreted total Aβ ELISA in conditioned media of H4βAPP695 wt cells. Format: cell-based, human. As to conditions: for inhibition at 10 µM / inhibition at 30 µM: Homo sapiens, 24 h, H4βAPP695 wt cells; for inhibition at 30 µM: read-out: Total Aβ (% decrease) 30 μM Mean; for Aβ secretion inhibiting activity (structure activity summary): in words. How it is done: H4βAPP695 wt cells, a human […] cell line stably transfected with a wtβAPP695 expression vector construct under the control of a CMV promoter (kindly provided by Dr. Chris Eckman from Mayo Clinic, Florida) were cultured as previously described. Twenty-four hours before drug treatment, the media was replaced with serum-free media. Cells were then incubated with drugs (dissolved in DMSO) or vehicle for 24 h for collection of conditioned media and cell lysates. For the PKC inhibitors experiment, three inhibitors were treated 30 min prior to drug challenge. Primary cortical neurons were prepared from embryonic day 18 APP and presenilin 1 (APPswe, PSEN1dE9) transgenic mice on the C57BL/6 genetic background (Jackson Laboratories, strain no. 5864) as previously described. THLE-3 human hepatoma cells (from ATCC) were plated in 24-well plates that were precoated with 10 μg/mL bovine serum albumin, 10 μg/mL fibronectin, and 30 μg/mL bovine type I collagen. The cells were grown in BEGM media (Clonetics) until confluent and treated with drugs at 20 μM for 24 h. This conditioned media was harvested, diluted 1:1 in serum-free medium, and incubated with H4βAPP695 wt cells for 24 h prior to analysis of secreted Aβ, which was compared to the effect of 10 μM drug treatments without prior incubation with the THLE-3 cells. Caco-2 cells (ATCC) were plated in 12-well plates with Transwell inserts (Costar) at 70000 cells per well and grown for 21 days. The media volume of the apical and basal chambers was 0.5 and 1.5 mL, respectively. Transepithelial resistance was measured in each well and found to be >160 Ω/cm^2. Drugs at 40 μM and 20 μg/mL of lucifer yellow were added in serum-free medium to the apical chamber. Four hours later, the basal chamber media was harvested and used to measure lucifer yellow fluorescence to confirm monolayer integrity as well as for treatment of H4βAPP695 wt cells for 24 h prior to analysis of secreted Aβ, which was compared to the effect of direct addition of 10 μM of the corresponding drug.
(In general: An ELISA detects its analyte on a solid surface through an enzyme-linked reagent.)

Another data set concerns H4βAPP695 wt cells. Kind of data set: Cytotoxicity by total cell protein content (BCA) of H4βAPP695 wt cells. The conditions noted are these: cytotoxicity.
Setting [1] is: relative to vehicle treated control cells, read-out: % β Decrease.
[2] abbreviates: read-out: Total Aβ (% decrease) 10 μM Mean.

As to `O=C(NCCSCc1ccc(Cl)cc1)c1ccc(Cl)cc1Cl` [Compound 2], the inhibition at 10 µM in the data set on Aβ secretion (setting [1]) was 5.3%.

On to `O=C(NCCSCc1ccc(O)cc1)c1c(Cl)cccc1Cl` [Compound 28, 2,6-Dichloro-N-[2-(4-hydroxy-benzylsulfanyl)-ethyl]-benzamide], for which the melting point lay in the range of 138 to 140 °C. Also, in the data set with H4βAPP695 wt cells, the “Cell protein (% decrease) 10 μM Mean” value is given as 8.7% and the “Cell protein (% decrease) 30 μM Mean” value is 4.4%. For the same compound, the inhibition at 10 µM in the data set on Aβ secretion (setting [2]) amounted to 13.1%. Also, in the data set with Aβ secretion, the inhibition at 30 µM turned out to be 56.7% and the “Aβ secretion inhibiting activity (structure activity summary)” value (“Aβ secretion inhibiting activity” below) is reported as “loss of activity”.

Take `O=C(NCCS(=O)(=O)Cc1ccc(F)cc1)c1c(F)cccc1Cl` [Compound 24]: in the data set with Aβ secretion (setting [1]), the inhibition at 10 µM stood at 39.2%.

`N#Cc1c(Cl)cccc1CSCCNC(=O)c1c(Cl)cccc1Cl` [Compound 62, 2,6-Dichloro-N-[2-(3-chloro-2-cyano-benzylsulfanyl)-ethyl]-benzamide] registered a melting point of 166 to 168 °C. In the data set with H4βAPP695 wt cells, the “Cell protein (% decrease) 10 μM Mean” value came out at 3.5% and the “Cell protein (% decrease) 30 μM Mean” value turned out to be 1.3%. Also, the inhibition at 10 µM with Aβ secretion (setting [2]) is 48.7%. Besides, the inhibition at 30 µM with Aβ secretion was determined as 52.3%.

Consider `O=C(NCCSCc1cccc(O)c1O)c1c(Cl)cccc1Cl` [Compound 58, 2,6-Dichloro-N-[2-(2,3-dihydroxy-benzylsulfanyl)-ethyl]-benzamide], for which, in the data set with H4βAPP695 wt cells, the “Cell protein (% decrease) 10 μM Mean” value is given as −4.8% and the “Cell protein (% decrease) 30 μM Mean” value is recorded as 14%. In addition, in the data set with Aβ secretion (setting [2]), the inhibition at 10 µM is -4.3%. In the data set on Aβ secretion, the inhibition at 30 µM was determined as 33.1% and the “Aβ secretion inhibiting activity” value was “lost activity”.

As to `NC(=O)c1cccc(CSCCNC(=O)c2c(Cl)cccc2Cl)c1` [Compound 45, N-[2-(3-Carbamoyl-benzylsulfanyl)-ethyl]-2,6-dichloro-benzamide], the melting point was in the range of 148 to 150 °C. For the same compound, in the data set with H4βAPP695 wt cells, the “Cell protein (% decrease) 10 μM Mean” value is −2.8% and the “Cell protein (% decrease) 30 μM Mean” value is −8.6%. The inhibition at 10 µM with Aβ secretion (setting [2]) was found to be 6.2%. Besides, in the data set on Aβ secretion, the inhibition at 30 µM came out at 32.3% and the “Aβ secretion inhibiting activity” value is recorded as “did not yield good activity”.

With `Oc1c(Cl)cc(Cl)cc1/C=N/CCSCc1ccccc1Cl` [Compound 23], the inhibition at 10 µM in the data set on Aβ secretion (setting [1]) was determined as 5.3%.

Regarding `O=C(NCCSCc1cccc(Br)c1)c1c(Cl)cccc1Cl` [Compound 51, N-[2-(3-Bromo-benzylsulfanyl)-ethyl]-2,6-dichloro-benzamide], the melting point was in the range of 74 to 76 °C. Besides, in the data set on H4βAPP695 wt cells, the “Cell protein (% decrease) 10 μM Mean” value came out at 12.3% and the “Cell protein (% decrease) 30 μM Mean” value came to 38.6%. For the same compound, in the data set on Aβ secretion, the inhibition at 30 µM was determined as 90.1% and the “Aβ secretion inhibiting activity” value is “good activity”.

Turning to `COc1cccc(C[S+]([O-])CCNC(=O)c2c(Cl)cccc2Cl)c1` (stereo not drawn) [Compound 32, 2,6-dichloro-N-[2-(3-methoxy-phenylmethanesulfinyl)-ethyl]-benzamide], in the data set on H4βAPP695 wt cells, the “Cell protein (% decrease) 10 μM Mean” value is reported as 1.6% and the “Cell protein (% decrease) 30 μM Mean” value was 9.2%. Also, the inhibition at 10 µM in the data set on Aβ secretion (setting [2]) was -13.6%. In addition, in the data set with Aβ secretion, the inhibition at 30 µM was -15.8% and the “Aβ secretion inhibiting activity” value is recorded as “No tested substitutions in the linker region were well tolerated”.

With `O=C(NCCCCNC(=O)c1ccccc1F)c1ccccc1F` [Compound 25], the inhibition at 10 µM in the data set with Aβ secretion (setting [1]) turned out to be 0.2%.

As for `N=C(NO)c1cccc(CSCCNC(=O)c2c(Cl)cccc2Cl)c1` [Compound 39, 2,6-Dichloro-N-(2-[3-(N-hydroxycarbamimidoyl)-benzylsulfanyl]-ethyl)-benzamide], in the data set on H4βAPP695 wt cells, the “Cell protein (% decrease) 10 μM Mean” value came out at 9.2% and the “Cell protein (% decrease) 30 μM Mean” value is reported as 5.9%. Further, the inhibition at 10 µM in the data set on Aβ secretion (setting [2]) is -1.5%. For the same compound, in the data set on Aβ secretion, the inhibition at 30 µM stood at 1.6% and the “Aβ secretion inhibiting activity” value is given as “did not yield good activity”.

Consider `O=C(NCCSCc1cccc(Cl)c1)c1ccccc1Cl` [Compound 3], for which the inhibition at 10 µM with Aβ secretion (setting [1]) was found to be 4.7%.

On to `O=C(NCCSCc1ccc(F)cc1)c1c(F)cccc1Cl` [Compound 22], for which, in the data set on Aβ secretion (setting [1]), the inhibition at 10 µM amounted to 27.3%.

For `O=C(NCCSCc1ccc(Cl)cc1)c1ccccc1Cl` [Compound 17], the inhibition at 10 µM in the data set on Aβ secretion (setting [1]) was -12%.

Regarding `O=C(NCCSCc1ccccc1Cl)c1ccccc1Cl` [Compound 16], the inhibition at 10 µM with Aβ secretion (setting [1]) is 4%.

As for `O=C(NCCSCc1ccccc1)c1ccccc1` [Compound 64, N-(2-Benzylsulfanyl-ethyl)-benzamide], in the data set on H4βAPP695 wt cells, the “Cell protein (% decrease) 10 μM Mean” value was found to be 0.7% and the “Cell protein (% decrease) 30 μM Mean” value is listed as −4.1%. The inhibition at 10 µM in the data set on Aβ secretion (setting [2]) was -5.7%. Besides, the inhibition at 30 µM with Aβ secretion is 5.5%.

As to `O=C(NCCCCNC(=O)c1ccccc1Br)c1ccccc1Br` [Compound 4], in the data set on Aβ secretion (setting [1]), the inhibition at 10 µM was 7.9%.

For the compound `COc1cccc(CS(=O)(=O)CCNC(=O)c2c(Cl)cccc2Cl)c1` [Compound 30, 2,6-dichloro-N-[2-(3-methoxy-phenylmethanesulfonyl)-ethyl]-benzamide], in the data set with H4βAPP695 wt cells, the “Cell protein (% decrease) 10 μM Mean” value stood at 1.2% and the “Cell protein (% decrease) 30 μM Mean” value was determined as 8.9%. Besides, the inhibition at 10 µM in the data set with Aβ secretion (setting [2]) came to 5.3%. Further, in the data set on Aβ secretion, the inhibition at 30 µM turned out to be 4.9% and the “Aβ secretion inhibiting activity” value is “No tested substitutions in the linker region were well tolerated”.

Consider `O=C(NCCNC(=O)c1c(Cl)cccc1Cl)c1c(Cl)cccc1Cl` [Compound 13], for which the inhibition at 10 µM in the data set on Aβ secretion (setting [1]) is 7.6%.

As for `O=C(NCCSCc1cccc(OCCOCCO)c1)c1c(Cl)cccc1Cl` [Compound 70, 2,6-Dichloro-N-(2-(3-[2-(2-hydroxy-ethoxy)-ethoxy]-benzylsulfanyl)-ethyl)-benzamide], in the data set on H4βAPP695 wt cells, the “Cell protein (% decrease) 10 μM Mean” value was −7.3% and the “Cell protein (% decrease) 30 μM Mean” value was 6.1%. Also, the inhibition at 10 µM with Aβ secretion (setting [2]) was 17.4%. Also, in the data set with Aβ secretion, the inhibition at 30 µM worked out at 24.3% and the “Aβ secretion inhibiting activity” value is listed as “did not yield good activity”.

`O=C(NCCSCc1ccc(Cl)c(Cl)c1)c1ccccc1Cl` [Compound 5]: the inhibition at 10 µM with Aβ secretion (setting [1]) was found to be 0.7%.

In the case of `Clc1cccc(CSCCNCc2c(Cl)cccc2Cl)c1` [Compound 57, [2-(3-Chloro-benzylsulfanyl)-ethyl]-(2,6-dichloro-benzyl)-amine], in the data set on H4βAPP695 wt cells, the “Cell protein (% decrease) 10 μM Mean” value is −3.6% and the “Cell protein (% decrease) 30 μM Mean” value was 6.6%. Moreover, the inhibition at 10 µM with Aβ secretion (setting [2]) was determined as 45.2%. Further, in the data set on Aβ secretion, the inhibition at 30 µM was determined as 45.6% and the “Aβ secretion inhibiting activity” value is recorded as “No tested substitutions in the linker region were well tolerated”.

Turning to `Cc1cccc(C)c1C(=O)NCCSCc1cccc(Cl)c1` [Compound 75, N-[2-(3-chloro-benzylsulfanyl)-ethyl]-2,6-dimethyl-benzamide], in the data set with H4βAPP695 wt cells, the “Cell protein (% decrease) 10 μM Mean” value came out at 0.9% and the “Cell protein (% decrease) 30 μM Mean” value was −9.4%. The inhibition at 10 µM in the data set on Aβ secretion (setting [2]) amounted to 29.5%. In the data set on Aβ secretion, the inhibition at 30 µM turned out to be 51.6% and the “Aβ secretion inhibiting activity” value is “not well tolerated”.

For `NC(=O)c1c(Cl)cccc1CSCC(=O)c1c(Cl)cccc1Cl` [Compound 61, 2-Chloro-6-((2-(2,6-dichlorophenyl)-2-oxoethylthio)methyl)benzamide], in the data set on H4βAPP695 wt cells, the “Cell protein (% decrease) 10 μM Mean” value came to 2.5% and the “Cell protein (% decrease) 30 μM Mean” value is −5.6%. The inhibition at 10 µM in the data set with Aβ secretion (setting [2]) is 44.7%. Besides, in the data set with Aβ secretion, the inhibition at 30 µM came out at 49.7% and the “Aβ secretion inhibiting activity” value is “could be tolerated”.

In the case of `COCCCNC(=O)c1c(Cl)cccc1Cl` [Compound 8], in the data set with Aβ secretion (setting [1]), the inhibition at 10 µM was determined as 6.9%.

Regarding `O=C(NCCSCc1ccc(Cl)c(Cl)c1)c1ccc(Cl)cc1Cl` [Compound 6], the inhibition at 10 µM in the data set with Aβ secretion (setting [1]) was 4.3%.

Regarding `O=C(Cc1c(Cl)cccc1Cl)NCCSCc1cccc(Cl)c1` [Compound 78, N-[2-(3-chloro-benzylsulfanyl)-ethyl]-2-(2,6-dichloro-phenyl)-acetamide], in the data set with H4βAPP695 wt cells, the “Cell protein (% decrease) 10 μM Mean” value is reported as −1.3% and the “Cell protein (% decrease) 30 μM Mean” value is reported as “−.07%”. In addition, the inhibition at 10 µM in the data set on Aβ secretion (setting [2]) worked out at 6.7%. In addition, in the data set on Aβ secretion, the inhibition at 30 µM amounted to 13.5% and the “Aβ secretion inhibiting activity” value was “No tested substitutions in the linker region were well tolerated”.

In general, melting point refers to the temperature of the solid-liquid transition.
